Measured values: patent publication US20230040770A1, “HETEROCYCLIC COMPOUND AND USE THEREOF” (TAKEDA PHARMACEUTICAL COMPANY LIMITED, priority 2019, published 2023)

Target: T1, human orexin type 2 receptor (Homo sapiens, UniProt O43614)
T1 construct: expressed in transfected cells
T1 sequence (O43614 1-444): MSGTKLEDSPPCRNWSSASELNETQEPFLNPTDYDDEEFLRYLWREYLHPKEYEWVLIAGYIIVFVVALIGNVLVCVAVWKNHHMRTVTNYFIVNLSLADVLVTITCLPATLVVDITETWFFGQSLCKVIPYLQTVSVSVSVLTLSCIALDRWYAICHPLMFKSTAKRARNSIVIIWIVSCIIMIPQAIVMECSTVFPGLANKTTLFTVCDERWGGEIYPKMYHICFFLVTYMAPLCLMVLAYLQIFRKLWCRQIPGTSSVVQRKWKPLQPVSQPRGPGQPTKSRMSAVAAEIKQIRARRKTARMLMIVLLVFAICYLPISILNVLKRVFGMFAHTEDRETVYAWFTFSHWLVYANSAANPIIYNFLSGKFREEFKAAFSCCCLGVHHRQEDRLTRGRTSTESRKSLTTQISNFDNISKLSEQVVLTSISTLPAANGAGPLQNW
Assay: Measurement of orexin type 2 receptor agonist activity (calcium indicator fluorescence, CHO cells forcibly expressing human OX2 receptor)
Format: cell-based
Details: compound at 3 μM; 0% = DMSO, 100% = orexin A (human) 10 nM
In short: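 Agonist response normalised between vehicle (0%) and orexin A at 10 nM final (100%), from kinetic Fluo-4 calcium signals recorded for about 2 min after compound addition. Cells: stable human OX2R CHO clone, dye-loaded 30 min at 37 °C plus 30 min at room temperature.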

SMILES | OX2R agonist activity (3 μM, %)
CCS(=O)(=O)N[C@@H]1[C@H](Cc2cccc(-c3cc(F)ccc3F)c2F)N(C(=O)[C@H]2C[C@H](F)C2)CC1(F)F [Example 376, N-{(2S,3R)-4,4-difluoro-1-((1r,3S)-3-fluorocyclobutane-1-carbonyl)-2-[(2,2′,5′-trifluoro[1,1′-biphenyl]-3-yl)methyl]pyrrolidin-3-yl}ethanesulfonamide] | 99%
O=C(C1CC1)N1C[C@H](F)[C@H](NS(=O)(=O)C2CC2)[C@@H]1Cc1cccc(-c2cccc(F)c2F)c1F [Example 377, N-{(2S,3R,4S)-1-(cyclopropanecarbonyl)-4-fluoro-2-[(2,2′,3′-trifluoro[1,1′-biphenyl]-3-yl)methyl]pyrrolidin-3-yl}cyclopropanesulfonamide] | 95%
CCS(=O)(=O)N[C@@H]1[C@H](Cc2cccc(-c3ccccc3)c2F)N(C(=O)[C@H]2C[C@H](F)C2)CC1(F)F [Example 378, N-[(2S,3R)-4,4-difluoro-2-[(2-fluoro[1,1′-biphenyl]-3-yl)methyl]-1-((1r,3S)-3-fluorocyclobutane-1-carbonyl)pyrrolidin-3-yl]ethanesulfonamide] | 106%
O=C(C1CC1)N1C[C@H](F)[C@H](NS(=O)(=O)C2CC2)[C@@H]1Cc1cccc(-c2cc(F)ccc2F)c1F [Example 379, N-{(2S,3R,4S)-1-(cyclopropanecarbonyl)-4-fluoro-2-[(2,2′,5′-trifluoro[1,1′-biphenyl]-3-yl)methyl]pyrrolidin-3-yl}cycloproapnesulfonamide] | 93%
CCS(=O)(=O)N[C@@H]1[C@H](Cc2cccc(-c3cc(F)ccc3F)c2F)N(C(=O)[C@H]2C[C@@H](F)C2)CC1(F)F [Example 381, N-{(2S,3R)-4,4-difluoro-1-((1s,3R)-3-fluorocyclobutane-1-carbonyl)-2-[(2,2′,5′-trifluoro[1,1′-biphenyl]-3-yl)methyl]pyrrolidin-3-yl}ethanesulfonamide] | 95%
CC(C)C(=O)N1C[C@H](F)[C@H](NS(=O)(=O)C2CC2)[C@@H]1Cc1cccc(-c2cccc(F)c2)c1F [Example 382, N-[(2S,3R,4S)-2-[(2,3′-difluoro[1,1′-biphenyl]-3-yl)methyl]-4-fluoro-1-(2-methylpropanoyl)pyrrolidin-3-yl]cyclopropanesulfonamide] | 102%
CCS(=O)(=O)N[C@@H]1[C@H](Cc2cccc(-c3ccccc3)c2F)N(C(=O)[C@H]2C[C@@H](F)C2)CC1(F)F [Example 383, N-[(2S,3R)-4,4-difluoro-2-[(2-fluoro[1,1′-biphenyl]-3-yl)methyl]-1-((1s,3R)-3-fluorocyclobutane-1-carbonyl)pyrrolidin-3-yl]ethanesulfonamide] | 94%
O=C(N1C[C@H](F)[C@H](NS(=O)(=O)C2CC2)[C@@H]1Cc1cccc(-c2cccc(F)c2)c1F)C12CC(C1)C2 [Example 384, N-{(2S,3R,4S)-1-(bicyclo[1.1.1]pentane-1-carbonyl)-2-[(2,3′-difluoro[1,1′-biphenyl]-3-yl)methyl]-4-fluoropyrrolidin-3-yl}cyclopropanesulfonamide] | 98%
O=C(C1CCO1)N1C[C@H](F)[C@H](NS(=O)(=O)C2CC2)[C@@H]1Cc1cccc(-c2cccc(F)c2)c1F (stereo partly drawn) [Example 385, N-[(2S,3R,4S)-2-[(2,3′-difluoro[1,1′-biphenyl]-3-yl)methyl]-4-fluoro-1-(oxetane-2-carbonyl)pyrrolidin-3-yl]cyclopropanesulfonamide] | 95%
CN(C)C(=O)N1C[C@H](F)[C@H](NS(=O)(=O)C2CC2)[C@@H]1Cc1cccc(-c2cccc(F)c2)c1F [Example 387, (2S,3R,4S)-3-[(cyclopropanesulfonyl)amino]-2-[(2,3′-difluoro[1,1′-biphenyl]-3-yl)methyl]-4-fluoro-N,N-dimethylpyrrolidine-1-carboxamide] | 85%
CC(C)(O)C(=O)N1C[C@H](F)[C@H](NS(C)(=O)=O)[C@@H]1Cc1cccc(-c2cccc(Cl)c2)c1F [Example 388, N-[(2S,3R,4S)-2-[(3′-chloro-2-fluoro[1,1′-biphenyl]-3-yl)methyl]-4-fluoro-1-(2-hydroxy-2-methylpropanoyl)pyrrolidin-3-yl]methanesulfonamide] | 89%
CC(C)(O)C(=O)N1C[C@H](F)[C@H](NS(C)(=O)=O)[C@@H]1Cc1cccc(-c2cccc(Cl)c2F)c1F [Example 389, N-[(2S,3R,4S)-2-[(3′-chloro-2,2′-difluoro[1,1′-biphenyl]-3-yl)methyl]-4-fluoro-1-(2-hydroxy-2-methylpropanoyl)pyrrolidin-3-yl]methanesulfonamide] | 89%
CC(C)(O)C(=O)N1C[C@H](F)[C@H](NS(C)(=O)=O)[C@@H]1Cc1cccc(-c2cc(F)cc(Cl)c2)c1F [Example 391, N-[(2S,3R,4S)-2-[(3′-chloro-2,5′-difluoro[1,1′-biphenyl]-3-yl)methyl]-4-fluoro-1-(2-hydroxy-2-methylpropanoyl)pyrrolidin-3-yl]methanesulfonamide] | 92%
CS(=O)(=O)N[C@@H]1[C@H](Cc2cccc(-c3cccc(F)c3)c2F)N(C(=O)C2CC(F)C2)CC1(F)F (stereo partly drawn) [Example 392, N-[(2S,3R)-2-[(2,3′-difluoro[1,1′-biphenyl]-3-yl)methyl]-4,4-difluoro-1-(3-fluorocyclobutane-1-carbonyl)pyrrolidin-3-yl]methanesulfonamide] | 97%
CS(=O)(=O)N[C@@H]1[C@H](Cc2cccc(-c3cccc(F)c3)c2F)N(C(=O)C2CC(F)C2)CC1(F)F (stereo partly drawn) [Example 393, N-[(2S,3R)-2-[(2,3′-difluoro[1,1′-biphenyl]-3-yl)methyl]-4,4-difluoro-1-(3-fluorocyclobutane-1-carbonyl)pyrrolidin-3-yl]methanesulfonamide] | 94%
CCS(=O)(=O)N[C@@H]1[C@H](Cc2cccc(-c3cc(C)cc(F)c3)c2F)N(C(=O)C2(O)CCC2)CC1(F)F [Example 394, N-[(2S,3R)-2-[(2,3′-difluoro-5′-methyl[1,1′-biphenyl]-3-yl)methyl]-4,4-difluoro-1-(1-hydroxycyclobutane-1-carbonyl)pyrrolidin-3-yl]ethanesulfonamide] | 86%
CCS(=O)(=O)N[C@H]1[C@@H](F)CN(C(=O)N(C)C)[C@H]1Cc1cccc(-c2cccc(C)c2F)c1F [Example 408, (2S,3R,4S)-2-[(2,2′-difluoro-3′-methyl[1,1′-biphenyl]-3-yl)methyl]-3-[(ethanesulfonyl)amino]-4-fluoro-N,N-dimethylpyrrolidine-1-carboxamide] | 88%
CCS(=O)(=O)N[C@H]1[C@@H](F)CN(C(=O)N(C)C)[C@H]1Cc1cccc(-c2ccc(F)c(C)c2)c1F [Example 409, (2S,3R,4S)-2-[(2,4′-difluoro-3′-methyl[1,1′-biphenyl]-3-yl)methyl]-3-[(ethanesulfonyl)amino]-4-fluoro-N,N-dimethylpyrrolidine-1-carboxamide] | 92%
CCS(=O)(=O)N[C@H]1[C@@H](F)CN(C(=O)[C@H]2CCCO2)[C@H]1Cc1cccc(-c2ccccc2)c1F [Example 413, N-{(2S,3R,4S)-4-fluoro-2-[(2-fluoro[1,1′-biphenyl]-3-yl)methyl]-1-[(2R)-oxolane-2-carbonyl]pyrrolidin-3-yl}ethanesulfonamide] | 99%
CCS(=O)(=O)N[C@H]1[C@@H](F)CN(C(=O)[C@H]2CCCO2)[C@H]1Cc1cccc(-c2cc(F)cc(F)c2)c1F [Example 414, N-{(2S,3R,4S)-4-fluoro-1-[(2R)-oxolane-2-carbonyl]-2-[(2,3′,5′-trifluoro[1,1′-biphenyl]-3-yl)methyl]pyrrolidin-3-yl}ethanesulfonamide] | 95%
CCS(=O)(=O)N[C@H]1[C@@H](F)CN(C(=O)[C@H]2CCCO2)[C@H]1Cc1cccc(-c2cccc(F)c2F)c1F [Example 415, N-{(2S,3R,4S)-4-fluoro-1-[(2R)-oxolane-2-carbonyl]-2-[(2,2′,3′-trifluoro[1,1′-biphenyl]-3-yl)methyl]pyrrolidin-3-yl}ethanesulfonamide] | 107%
CCS(=O)(=O)N[C@H]1[C@@H](F)CN(C(=O)[C@H]2CCCO2)[C@H]1Cc1cccc(-c2cc(F)ccc2F)c1F [Example 416, N-{(2S,3R,4S)-4-fluoro-1-[(2R)-oxolane-2-carbonyl]-2-[(2,2′,5′-trifluoro[1,1′-biphenyl]-3-yl)methyl]pyrrolidin-3-yl}ethanesulfonamide] | 101%
CCS(=O)(=O)N[C@H]1[C@@H](F)CN(C(=O)C2CCO2)[C@H]1Cc1cccc(-c2cccc(Cl)c2)c1F (stereo partly drawn) [Example 422, N-[(2S,3R,4S)-2-[(3′-chloro-2-fluoro[1,1′-biphenyl]-3-yl)methyl]-4-fluoro-1-(oxetane-2-carbonyl)pyrrolidin-3-yl]ethanesulfonamide] | 102%
CCS(=O)(=O)N[C@H]1[C@@H](F)CN(C(=O)C2CCO2)[C@H]1Cc1cccc(-c2cccc(Cl)c2F)c1F (stereo partly drawn) [Example 423, N-[(2S,3R,4S)-2-[(3′-chloro-2,2′-difluoro[1,1′-biphenyl]-3-yl)methyl]-4-fluoro-1-(oxetane-2-carbonyl)pyrrolidin-3-yl]ethanesulfonamide] | 90%
